Measured values as given in patent US7906620B2, “Tumor associated antigen, peptides thereof, and use of same as anti-tumor vaccines” (Yeda Research and Development Co. Ltd., priority 2002, dated 2011).

What was measured:
[1] = test system: PC3-HHD tumors; test: Adoptive transfer of anti-peptide CTL to CD1 nude mice bearing PC3-HHD tumors; type: in vivo; settings: for complete rejection of tumors: local injection day 7, PAP-3: 35×10^6 lymphocytes (11×10^6 CD8+), STEAP-3: 50×10^6 (3×10^6 CD8+), IL-2; for tumor growth in the other mice: same groups as complete rejection
Description: FIGS. 19A and 19B are graphs showing that adoptively transferred anti-peptide CTL retard tumor growth. HHD derived anti-PAP3 (FIG. 19A) or STEAP-3 (FIG. 19B) were stimulated in vitro and transferred to CD1 nude mice bearing 7 day PC3-HHD tumors (expressing PAP and STEAP) as described. Tumor growth was followed for 38 days.
HHD mice were immunized i.p. 6 times (twice at week) with 10^6 syngeneic dendritic cells pulsed with either PAP-3, STEAP-3 or irrelevant (tyrosinase-derived, HLA-A2.1 binding) peptides. Spleens were removed on day 10, and splenocytes were restimulated in vitro by 100 μM of either PAP-3 or STEAP-3 peptides in OPTIMEM for 2 h at 37° C., 5% CO2, followed by restimulation of lymphocytes for 4 more days in lymphocyte medium (RPMI-1640 supplemented with 25 mM HEPES, 10% heat-inactivated FCS, 0.1 mM non-essential amino acids, 1 mM sodium pyruvate, 2 mM. L-glutamine, 40 microg/ml garamycin and 5×10^−5 M 2-mercaptoethanol). Total lymphocytes were suspended at 10^6/ml and activated with plate-bound anti-CD3 mAb (145-2C11) for 72 h at 37° C. in 5% CO2 in 24-well plates. Activated cells were resuspended at a concentration of 3×10^5/ml lymphocyte medium with IL-2 (100 U/ml) for 3 days, then diluted 1:3 in fresh medium with IL-2 for an additional 4 days. Lymphocytes were harvested, samples were incubated with anti-CD4, anti-CD8 or isotype control mAb (all obtained from Catalog, USA), and analyzed using CellQuest software. Seven to nine CD1 nude mice per group received 4 Gy total body irradiation from a 137CS source, followed by s.c. inoculation with 5×10^6 PC3-HHD13 cells in Matrigel (BD PharMingen, San Diego, Calif.) to initiate tumors. Seven days later, mice were injected locally with 35×10^6 PAP-3 or tyrosinase specific lymphocytes (11×10^6 were CD8+), 50×10^6 STEAP-3 specific lymphocytes (3×10^6 were CD8+) or PBS. IL-2 (1000 U) was injected twice a day for five consecutive days. Tumor size was measured 3 times per week.

[2] = test system: T2 cells; test: In vitro priming of human CTL with prostate peptides, cytolytic assay on peptide pulsed T2 cells; type: cell-based; settings: for existence of peripheral CTL precursors in healthy individuals: peripheral blood of healthy individuals; for activation of CTL precursors in PBMC derived from CaP patients and healthy donors: three healthy and two CaP individuals
Method: FIGS. 16A-16D are graphs showing in vitro priming of human CTLs. PBMC of leukopheresis samples were isolated and in vitro CTL primed with peptide pulsed autologous DC. PBMC were supplemented with IL-7 and two days later IL-2 was added and renewed every three days. Additional two cycles of re-stimulation were done every 7 days over peptide pulsed monocytes. Seven days after the last stimulation cytolytic assay was performed using peptide pulsed or non-pulsed T2 cells as target. In FIG. 16A, PBMC derived from CaP individual (donor A) were primed and re-stimulated with STEAP-3 pulsed DC/monocytes. Target cells: relevant (STEAP-3) and non-relevant peptide (HIV-derived, PAP-3) pulsed T2 cells. In FIG. 16B, PBMC derived from healthy individual (donor B) were primed and restimulated with PAP-3 pulsed DC/monocytes. Target cells: relevant (PAP-3) and non-relevant peptide (HIV-derived, STEAP-3) pulsed T2 cells. PBMC derived from healthy individual (donor C) were primed and restimulated with either PAP-3 (C-1; FIG. 16C) or STEAP-3 (C-2; FIG. 16D) pulsed DC/monocytes. Relevant (PAP-3 or STEAP-3) peptide pulsed and non-pulsed T2 cells were used as targets.
FIGS. 17A-17C are graphs showing peptide specific CTL induced in human PBMC by PAP-3 (FIG. 17A), STEAP-3 (FIG. 17B), and PSGR-1 (FIG. 17C). PBMC from a healthy donor were stimulated by peptide pulsed DC as described and CTL activity was tested on homologous peptide pulsed T2 target cells (HLA-A2 lymphoma, TAP deficient).
Finally, peripheral blood of two healthy (donors B, C) and one CaP (donor A) individuals were tested for the existence of CTL precursors (FIGS. 16A-16D). Leukopheresis products of the donors were obtained from Barzilai Medical Center (Ashkelon, Israel) according to Declaration of Helsinki Principles. PBMC were isolated by centrifugation on Ficoll-Plaque Plus gradients (Amersham, Sweden). In vitro priming of CTL was done over autologous DC that were prepared from monocytes by IL-4 and GM-CSF treatment and maturated with a IL-1β, IL-6, TNF-α and PGE2 cocktail. DC were pulsed with synthetic peptides and PBMC were supplemented with IL-7. Two days later, IL-2 was added and renewed every three days. Two additional re-stimulations were done every 7 days over peptide pulsed monocytes. Seven days after the third stimulation, lymphocytes were harvested and a cytolytic assay was performed using relevant/non-relevant peptide pulsed or non-pulsed at all T2 cells.
When human PBMC are stimulated in vitro by PAP-3 and STEAP-3 peptides, the resulting CTL can lyse target cells (T2, EL4/HHD) pulsed with PAP-3, STEAP-3 or PSGR-1 and PSGR-6 peptides. (FIGS. 15 and 16). Here, these findings were expanded and peripheral blood of three healthy and two CaP individuals was tested for the existence of CTL precursors against PAP-3, STEAP-3 and PSGR-1 peptides. Leukopheresis products of the donors were obtained from Barzilai Medical Center (Ashkelon, Israel) according to Declaration of Helsinki Principles. PBMC were isolated by centrifugation on Ficoll-Plaque Plus gradients (Amersham, Sweden). In vitro priming of CTL was done over autologous DC that were prepared from monocytes by IL-4 and GM-CSF treatment and matured with a IL-1β, IL-6, TNF-α and PGE2 cocktail. DC were pulsed with synthetic peptides and PBMC were supplemented with IL-7. Two days later, IL-2 was added and renewed every three days. Two additional re-stimulations were done every 7 days over peptide pulsed monocytes. Seven days after the third stimulation, lymphocytes were harvested and a cytolytic assay was performed using relevant/non-relevant peptide pulsed or non-pulsed T2 cells (FIGS. 17A-17C) and LNCaP (high and low HLA expressors) cells as targets (FIGS. 18A-18E). […] Monitoring of HLA-A2-peptide specific CD8+ cells for PAP-3 and STEAP-3 was also performed by MHC-peptide tetramers (tetramers of recombinant HLA-A2.1-beta2 microglobulin single chain with peptides were prepared in collaboration with Dr Yoram Reiter, Technion, Haifa). […]

[3] = test system: HLA-A2-peptide specific CD8+ cells; test: MHC-peptide tetramer monitoring of HLA-A2-peptide specific CD8+ cells; type: cell-based, human; settings: stimulated PBMC, MHC-peptide tetramers

Sequence | complete rejection of tumors [1] | tumor growth in the other mice [1] | existence of peripheral CTL precursors in healthy individuals [2] | activation of CTL precursors in PBMC derived from CaP patients and healthy donors [2] | Levels of HLA-A2-peptide specific CD8+ cells [3] [%] | activation of CTL precursors in PBMC derived from CaP individual ([2]; donor A)
ILLWQPIPV (listed as Homo sapiens) [PAP-3, PAP start position 135] | 4/8 | retarded growth | 2 out of 2 | activated CTL precursors | 1.7 | –
LLLGTIHAL (listed as Homo sapiens) [STEAP-3, STEAP start position 262] | 2/9 | retarded growth | 1 out of 2 | activated CTL precursors | 0.76 | activated peripheral CTL precursors
